Measured values reported in patent publication US9266954B2, “Methods for modulating D1-D2 dopamine receptor coupling and function” (Centre for Addiction and Mental Health, priority 2008, dated 2016).
Ends that are not written are not given here.

What was measured:
[1] = target: T1, HEK-293T cells co-expressing D1 and D2 receptors (Homo sapiens, UniProt P14416+P21728); experiment: Fluo-4AM fluorescence measurement of intracellular Ca^2+ in HEK-293T cells co-expressing D1 and D2 receptors; type: cell-based; details: pretreatment 10 μM
T1 construct: expressed in transfected cells; host or cells: HEK-293T
T1 sequence (P21728 whole entry): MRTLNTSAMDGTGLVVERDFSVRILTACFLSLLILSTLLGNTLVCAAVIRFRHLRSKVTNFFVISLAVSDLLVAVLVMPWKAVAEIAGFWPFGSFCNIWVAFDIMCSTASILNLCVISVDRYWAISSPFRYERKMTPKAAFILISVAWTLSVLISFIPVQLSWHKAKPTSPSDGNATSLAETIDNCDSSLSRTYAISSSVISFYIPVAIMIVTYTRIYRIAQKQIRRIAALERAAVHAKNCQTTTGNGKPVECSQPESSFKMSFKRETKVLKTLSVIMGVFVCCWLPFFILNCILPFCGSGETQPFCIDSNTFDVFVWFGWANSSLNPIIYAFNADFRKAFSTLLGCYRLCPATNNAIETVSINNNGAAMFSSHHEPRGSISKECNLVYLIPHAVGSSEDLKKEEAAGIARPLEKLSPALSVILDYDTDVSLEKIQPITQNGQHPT
T1 sequence (P14416 whole entry): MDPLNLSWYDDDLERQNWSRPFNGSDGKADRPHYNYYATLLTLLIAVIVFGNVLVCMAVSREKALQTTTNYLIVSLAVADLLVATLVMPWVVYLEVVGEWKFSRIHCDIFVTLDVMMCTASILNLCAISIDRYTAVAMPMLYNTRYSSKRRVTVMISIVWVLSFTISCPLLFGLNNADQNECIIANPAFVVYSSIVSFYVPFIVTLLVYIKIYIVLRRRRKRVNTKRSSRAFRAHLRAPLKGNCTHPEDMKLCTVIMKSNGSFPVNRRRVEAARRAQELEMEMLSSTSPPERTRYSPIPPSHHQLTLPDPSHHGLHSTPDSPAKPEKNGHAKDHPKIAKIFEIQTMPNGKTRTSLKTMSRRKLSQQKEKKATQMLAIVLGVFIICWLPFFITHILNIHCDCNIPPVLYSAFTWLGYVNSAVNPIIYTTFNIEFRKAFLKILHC
Text: Fluorescence values were monitored using a PerkinElmer multiwell plated fluorometer, collected at 3-s intervals for 150 s. (A.F.U.: arbitrary fluorescence units).
To investigate the functional implication of the D1-D2 coupling, we examined the ability of this complex to promote Gq/11 signaling as indexed by changes in intracellular Ca^2+ levels^83-85.

D2 receptors = details: rat, in vivo
D1-D2 coupling = details: rat, in vivo, sc, 10 mg/kg/day
D2R = experiment: Western blot of D2R levels in striata of chronically treated rats; type: in vivo; details: rat striata; 10 mg/kg/day subcutaneously for 14 days
D1R = experiment: Western blot of D1R levels in striata of chronically treated rats; type: in vivo; details: rat striata; 10 mg/kg/day subcutaneously for 14 days
D1 receptors = target: T2, D1 receptors (Rattus norvegicus, UniProt P18901); experiment: GST-fusion protein affinity pull-down of D1 receptor from solubilized rat striatum; type: binding; details: FIG. 1C-1E
T2 construct: D1 receptor was specifically pulled down by GST-D2IL3-L in detergent extracts of rat striatum; from tissue; host or cells: rat striatum, detergent-solubilized
T2 sequence (P18901 whole entry, the tested form may be a part): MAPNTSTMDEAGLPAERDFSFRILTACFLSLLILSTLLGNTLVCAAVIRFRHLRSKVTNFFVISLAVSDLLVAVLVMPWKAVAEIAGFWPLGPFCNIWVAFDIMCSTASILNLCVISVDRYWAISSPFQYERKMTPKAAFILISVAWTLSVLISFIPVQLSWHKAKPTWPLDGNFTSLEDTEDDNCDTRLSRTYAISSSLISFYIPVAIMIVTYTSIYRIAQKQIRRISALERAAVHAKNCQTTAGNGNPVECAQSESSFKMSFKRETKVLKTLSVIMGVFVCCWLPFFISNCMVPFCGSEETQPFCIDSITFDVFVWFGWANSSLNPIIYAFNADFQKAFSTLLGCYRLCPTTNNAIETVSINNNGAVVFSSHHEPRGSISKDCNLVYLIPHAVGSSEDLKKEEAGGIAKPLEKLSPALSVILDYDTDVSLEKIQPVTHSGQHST
Text: (§1) To confirm previous reports of a D1-D2 receptor complex we used rat striata in co-immunoprecipitation (co-IP) experiments. […] In an attempt to define the structural basis for the observed D1-D2 coupling, we carried out affinity purification using GST (glutathione-S-transferase)-fusion proteins encoding the D1CT and the third intracellular loop (D1IL3), since both D1CT: A332-T446 and D1IL3: R219-K272 contain putative consensus sequences for receptor phosphorylation, desensitization and potential binding sites for various proteins important for signalling (e.g. G proteins, NMDA receptor NR1, NR2A subunits)^81-82. […] To locate the interacting site on D2R, GST-fusion proteins encoding IL3 from both the D2 short (D2S) and D2 Long (D2L) (GST-D2IL3-L: K211-Q373, GST-D2IL3-S:K211-[…]) were used in affinity purification assays. […] Since the D2L and D2S are differentiated by the additional 29 amino-acid within the third intracellular loop, the fact that only D2L but not D2S interacts with D1R made us suspect that this specific 29 amino-acid may contain the D1-D2 interacting site.

D1 tail = target: T3, D1 tail (Homo sapiens, UniProt P21728); experiment: in vitro binding assay with S^35-D1 tail probe; details: FIG. 1F
T3 construct: D1CT A332-T446
T3 sequence (P21728 332-446): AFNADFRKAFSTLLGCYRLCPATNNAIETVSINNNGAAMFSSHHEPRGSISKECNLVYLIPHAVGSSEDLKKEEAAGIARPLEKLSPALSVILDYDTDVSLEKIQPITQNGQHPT
Text: as §1

D1-D2 interaction = target: T4, D1-D2 interaction (Rattus norvegicus, UniProt P18901); experiment: competitive co-immunoprecipitation of D1 receptor with D2 receptor in rat striatum; type: binding; details: preincubation, FIG. 1G
T4 construct: from tissue; host or cells: rat striatum
T4 sequence (P18901 whole entry): as the sequence (P18901 whole entry, the tested form may be a part) above
Text: The ability of D1 receptor to co-immunoprecipitate with D2 receptor is inhibited by the addition of GST-D2IL3-29-2 in a concentration dependent manner;
as §1

block of the Ca^2+ increase induced by co-activation with 10 μM SKF81297 and 10 μM quinpirole [1]	pull-down of D1 receptors (D1 receptors)	binding of S^35-D1 tail probe (D1 tail)	Compound	also measured
inhibited the increase in Ca^2+ levels	–	–	COc1ccc2c(c1)CC[C@@H]1[C@@H]2CC[C@]2(C)[C@@H](NCCCCCCN3C(=O)C=CC3=O)CC[C@@H]12 [U73122]	–
–	–	–	O=C(CCCN1CCC(O)(c2ccc(Cl)cc2)CC1)c1ccc(F)cc1 [haloperidol]	direct immunoprecipitated D2 receptors (D2 receptors): remain unchanged
–	–	–	CN(C)CCCN1c2ccccc2CCc2ccccc21 [imipramine]	D1-D2 coupling (co-immunoprecipitation) (D1-D2 coupling): decrease in D1-D2 coupling; D2R levels (Western blot) vs control rats (D2R): no significant change; D1R levels (Western blot) vs control rats (D1R): no significant change
blocked	–	–	CCN1CCC[C@H]1CNC(=O)c1c(O)c(Cl)cc(Cl)c1OC [raclopride]	–
–	not	not	GST-D2LIL3-29-1: GST-fusion protein encoding D2LIL3-29-1: G242-V255 (GNCTHPEDMKLCTV; cysteine pairing not given here; also: GST fusion protein)	–
–	can successfully pull-down D1R	specifically bound	GST-D2LIL3-29-2: GST-fusion protein encoding D2LIL3-29-2: I256-V270 (IMKSNGSFPVNRRRV; also: GST fusion protein)	inhibition of D1-D2 interaction as indexed by co-immunoprecipitation (D1-D2 interaction): inhibits the D1-D2 interaction as indexed by the co-immunoprecipitation in a concentration dependent manner
